Experiment: Stability in an aqueous vehicle
Assay type: physicochemical
Details: no test data printed

Q: For “4(3)-(4-hydroxy-4-methylpentyl)-3-cyclohexene-1-carbonitrile [Example 1]”, which “Stability in an aqueous vehicle” value is on record?
A: stable in an aqueous vehicle

Reference: US8980819B2, “4(3)-(4-hydroxy-4-methylpentyl)-3-cyclohexene-1-carbonitrile” (Kao Corporation, priority 2013, dated 2015)
